The values below come from patent publication US10266526B2, “Substituted 1,2,3-triazoles as SMYD inhibitors for treating cancer” (EPIZYME, INC., priority 2014, dated 2019).

Molecules are shown by their SMILES. Where a name gives a salt, the structure may show the parent alone. Some results are limits rather than exact numbers.

Sequence of SMYD3 (Q9H7B4 whole entry): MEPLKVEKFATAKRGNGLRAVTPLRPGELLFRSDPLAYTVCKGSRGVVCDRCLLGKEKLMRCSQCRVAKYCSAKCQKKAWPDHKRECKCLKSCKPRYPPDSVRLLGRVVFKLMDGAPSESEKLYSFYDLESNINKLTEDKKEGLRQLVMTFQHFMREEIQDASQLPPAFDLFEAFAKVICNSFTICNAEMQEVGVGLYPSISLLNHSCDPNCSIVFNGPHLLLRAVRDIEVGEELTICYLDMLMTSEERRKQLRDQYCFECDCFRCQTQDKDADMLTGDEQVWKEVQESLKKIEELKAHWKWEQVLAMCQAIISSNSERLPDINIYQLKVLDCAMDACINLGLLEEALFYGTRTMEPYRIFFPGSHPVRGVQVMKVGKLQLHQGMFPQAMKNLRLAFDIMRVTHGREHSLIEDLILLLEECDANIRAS

One assay addresses SMYD3 (Homo sapiens (Human), UniProt Q9H7B4). Put plainly: SMYD3 biochemical assay (SMYD3 enzyme assay on MEKK2 protein substrate, 3H-SAM scintillation proximity assay). Conditions: Table 1A; average of n = 1 to n = 50; read-out: SMYD3 Biochem IC50. From the text:
S-adenosylmethionine (SAM), S-adenosylhomocysteine (SAH), Tris, Tween20, dimethylsulfoxide (DMSO), bovine skin gelatin (BSG), and Tris(2-carboxyethyl)phosphine hydrochloride solution (TCEP) were purchased from Sigma-Aldrich at the highest level of purity possible. ^3H-SAM was purchase from American Radiolabeled Chemicals with a specific activity of 80 Ci/mmol. 384-well opaque white OptiPlates and SPA beads (Perkin Elmer, catalog # RPNQ0013) were purchased from PerkinElmer.
N-terminally GST-tagged MEKK2 (MAP3K2) protein corresponding to reference sequence AAF63496.3 was purchased from Life Technologies (catalog # PV4010). This protein was expressed in High Five insect cells and purified to >85% purity. Protein identity was confirmed by MS/MS analysis after proteolytic digestion. The protein sequence used was:
Full-length human SMYD3 isoform 1 (BAB86333) was inserted into a modified pET21b plasmid containing a His6 tag and TEV and SUMO cleavage sites.
E. coli (BL21 codonplus RIL strain, Stratagene) were transformed with plasmid pEPZ553 by mixing competent cells and plasmid DNA and incubating on ice for 30 minutes followed by heat shock at 42° C. for 1 minute and cooling on ice for 2 minutes. Transformed cells were grown and selected on LB agar with 100 μg/mL ampicillin and 17 μg/mL chloramphenicol at 37° C. overnight. A single clone was used to inoculate 200 mL of LB medium with 100 μg/mL ampicillin and 17 μg/mL chloramphenicol and incubated at 37° C. on an orbital shaker at 180 rpm. Once in log growth, the culture was diluted 1:100 into 2 L of LB medium and grown until OD600 was about 0.3 after which the culture was incubated at 15° C. and 160 rpm. Once OD600 reached about 0.4, IPTG was added to a final concentration of 0.1 mM and the cells were grown overnight at 15° C. and 160 rpm. Cells were harvested by centrifugation at 8000 rpm, for 4 minutes at 4° C. and stored at −80° C. for purification.
The column was washed with Buffer B (Buffer A plus 20 mM imidazole) and His-tagged SMYD3 was eluted with Buffer C (Buffer A plus 300 mM imidazole). The His tag, TEV and SUMO cleavage sites were removed generating native SMYD3 by addition of ULP1 protein at a ratio of 1:200 (ULP1:SMYD3). Imidazole was removed by dialysis overnight in Buffer A. The dialyzed solution was applied to a second Nickel column and the native SMYD3 protein was collected from the column flow-through. The flow-through was dialyzed in Buffer D (25 mM Tris, 5% glycerol, 5 mM β-mercaptoethanol, 50 mM NaCl, pH7.8) and ULP1 was removed using a Q sepharose fast flow column.
General Procedure for SMYD3 Enzyme Assays on MEKK2 Protein Substrate
The assays were all performed in a buffer consisting of 25 mM Tris-Cl pH 8.0, 1 mM TCEP, 0.005% BSG, and 0.005% Tween 20, prepared on the day of use. […] DMSO (1 ul) was added to Columns 11, 12, 23, 24, rows A-H for the maximum signal control and 1 ul of SAH, a known product and inhibitor of SMYD3, was added to columns 11, 12, 23, 24, rows I-P for the minimum signal control. A cocktail (40 ul) containing the SMYD3 enzyme was added by Multidrop Combi (Thermo-Fisher). The compounds were allowed to incubate with SMYD3 for 30 min at room temperature, then a cocktail (10 ul) containing SAM and MEKK2 was added to initiate the reaction (final volume=51 ul). […] The assays were stopped by the addition of non-radiolabeled SAM (10 ul) to a final concentration of 100 uM, which dilutes the ^3H-SAM to a level where its incorporation into MEKK2 is no longer detectable. Radiolabeled MEKK2 was detected using a scintillation proximity assay (SPA). 10 uL of a 10 mg/mL solution of SPA beads in 0.5 M citric acid was added and the plates centrifuged at 600 rpm for 1 min to precipitate the radiolabeled MEKK2 onto the SPA beads.
On the technique in general: SPA uses beads or plates that emit light when radiolabelled molecules are held near them.
The term IC50 denotes the concentration at which inhibition is half-maximal. For the compound `NCCC(=O)N[C@H]1CC[C@H](NC(=O)c2cc3cc(Br)ccc3nc2O)CC1` [compound 566, N-((1r,4r)-4-(3-aminopropanamido)cyclohexyl)-6-bromo-2-hydroxyquinoline-3-carboxamide], the IC50 is > 10 µM. Take `CC(NC(=O)c1n[nH]c(=O)[nH]1)C1CCN(C(=O)[C@H](C)N)CC1` (stereo partly drawn) [compound 546, N-(1-(1-(L-alanyl)piperidin-4-yl)ethyl)-5-oxo-4,5-dihydro-1H-1,2,4-triazole-3-carboxamide]: the IC50 was 9.76 µM.

The assay is the same for the next values; noted with them: read-out: SMYD3 Biochem IC50.
In the case of `COc1ccc2cc(C(=O)NC(C)C3CCN(C(=O)[C@H](C)N)CC3)ccc2c1` (stereo partly drawn) [compound 220, N-(1-(1-(L-alanyl)piperidin-4-yl)ethyl)-6-methoxy-2-naphthamide], the concentration for half-maximal inhibition (IC50) is > 100 µM. The same measure, in the same setting: the same measure for `N[C@H]1CC[C@H](NC(=O)c2cc[n+]([O-])cc2)CC1` [compound 210, 4-(((1r,4r)-4-aminocyclohexyl)carbamoyl)pyridine 1-oxide]: > 100 µM. Still for that read-out and setting: the same measure for `Cc1ccc(C(=O)N[C@H]2CC[C@H](N)CC2)cn1` [compound 346, N-((1r,4r)-4-aminocyclohexyl)-6-methylnicotinamide]: > 100 µM. The same measure, in the same setting: to `Cc1nc2ccccc2c(C(=O)NC(C)C2CCN(C(=O)[C@H](C)N)CC2)c1N` (stereo partly drawn) [compound 489, N-(1-(1-(L-alanyl)piperidin-4-yl)ethyl)-3-amino-2-methylquinoline-4-carboxamide] belongs 31.6 µM; to `NCCC(=O)N[C@H]1CC[C@H](NC(=O)c2cn3ccsc3n2)CC1` [compound 317, N-((1r,4r)-4-(3-aminopropanamido)cyclohexyl)imidazo[2,1-b]thiazole-6-carboxamide], > 100 µM; to `Cc1c(C(=O)N[C@H]2CC[C@H](N)CC2)nnn1-c1ccccc1` [compound 273, N-((1r,4r)-4-aminocyclohexyl)-5-methyl-1-phenyl-1H-1,2,3-triazole-4-carboxamide], > 100 µM. On to `CC(NC(=O)c1cc2cc(F)ccc2[nH]1)C1CCN(C(=O)[C@H](C)N)CC1` (stereo partly drawn) [compound 198, N-(1-(1-(L-alanyl)piperidin-4-yl)ethyl)-5-fluoro-1H-indole-2-carboxamide], for which the IC50 came to 41.7 µM. Still for that read-out and setting: the same measure for `CC(NC(=O)Cc1cccnc1)C1CCN(C(=O)[C@H](C)N)CC1` (stereo partly drawn) [compound 314, N-(1-(1-(L-alanyl)piperidin-4-yl)ethyl)-2-(pyridin-3-yl)acetamide]: > 100 µM. Same read-out and setting: to `N[C@H]1CC[C@H](NC(=O)c2ccc3c(c2)CCCC3)CC1` [compound 204, N-((1r,4r)-4-aminocyclohexyl)-5,6,7,8-tetrahydronaphthalene-2-carboxamide] belongs 47.4 µM.

Regarding `Cc1ccc(C(=O)NC(C)C2CCN(C(=O)[C@H](C)N)CC2)cn1` (stereo partly drawn) [compound 257, N-(1-(1-(L-alanyl)piperidin-4-yl)ethyl)-6-methylnicotinamide], the IC50 was > 100 µM.

Turning to `N[C@H]1CC[C@H](NC(=O)C2=NNC(=O)CC2)CC1` [compound 424, N-((1r,4r)-4-aminocyclohexyl)-6-oxo-1,4,5,6-tetrahydropyridazine-3-carboxamide], the half-inhibitory concentration (IC50) is > 100 µM. Same read-out and setting: the same measure for `Cn1ccc(C(=O)N[C@H]2CC[C@H](NC(=O)CCN)CC2)n1` [compound 349, N-((1r,4r)-4-(3-aminopropanamido)cyclohexyl)-1-methyl-1H-pyrazole-3-carboxamide]: > 100 µM. `Cc1cnccc1C(=O)NC(C)C1CCN(C(=O)[C@H](C)N)CC1` (stereo partly drawn) [compound 254, N-(1-(1-(L-alanyl)piperidin-4-yl)ethyl)-3-methylisonicotinamide]: the IC50 was > 100 µM. The same measure, in the same setting: to `NCCC(=O)N[C@H]1CC[C@H](NC(=O)c2cnc3ccccc3n2)CC1` [compound 373, N-((1r,4r)-4-(3-aminopropanamido)cyclohexyl)quinoxaline-2-carboxamide] belongs > 100 µM; to `N[C@H]1CC[C@H](NC(=O)c2ccc3c(c2)CNC3=O)CC1` [compound 487, N-((1r,4r)-4-aminocyclohexyl)-1-oxoisoindoline-5-carboxamide], 37.9 µM; to `N[C@H]1CC[C@H](NC(=O)c2ccnc(O)c2)CC1` [compound 292, N-((1r,4r)-4-aminocyclohexyl)-2-hydroxyisonicotinamide], > 100 µM. Take `Nc1cccc(C(=O)N[C@H]2CC[C@H](N)CC2)n1` [compound 386, 6-amino-N-((1r,4r)-4-aminocyclohexyl)picolinamide]: the 50% inhibitory concentration (IC50) is > 100 µM. Same read-out and setting: the same measure for `N[C@H]1CC[C@H](NC(=O)c2ccc3[nH]ccc3c2)CC1` [compound 192, N-((1r,4r)-4-aminocyclohexyl)-1H-indole-5-carboxamide]: > 100 µM; for `NCCC(=O)N[C@H]1CC[C@H](NC(=O)c2nc3ccc(F)cc3s2)CC1` [compound 499, N-((1r,4r)-4-(3-aminopropanamido)cyclohexyl)-6-fluorobenzo[d]thiazole-2-carboxamide]: 86.3 µM.

The assay is the same for the next values; noted with them: read-out: SMYD3 Biochem IC50 (μM)*.
Regarding `CC(NC(=O)c1ccc2[nH]c(=O)oc2c1)C1CCN(C(=O)[C@H](C)N)CC1` (stereo partly drawn) [Cpd. No. 94, N-(1-(1-((S)-2-aminopropanoyl)piperidin-4-yl)ethyl)-2-oxo-2,3-dihydrobenzo[d]oxazole-6-carboxamide Hydrochloride], the 50% inhibitory concentration (IC50) came out at 3.94 µM. Same read-out and setting: to `NCCC(=O)N[C@H]1CC[C@H](NC(=O)c2ccc3ccccc3n2)CC1` [compound 163, N-((1r,4r)-4-(3-aminopropanamido)cyclohexyl)quinoline-2-carboxamide] belongs > 100 µM; to `C[C@H](N)C(=O)N1CCC(C)(CNC(=O)c2ccc3c(c2)CC(=O)N3)CC1` [compound 176, N-((1-(L-alanyl)-4-methylpiperidin-4-yl)methyl)-2-oxoindoline-5-carboxamide], 3.52 µM; to `CC(CC(=O)NC(c1ccccc1)C1CCNCC1)C1CC1` (stereo not shown) [compound 63, 3-cyclopropyl-N-(phenyl(piperidin-4-yl)methyl)butanamide], 131 µM.

Regarding `CCC(=O)Nc1cccc(C(=O)N[C@H]2CC[C@H](N)CC2)c1` [compound 25, N-((1r,4r)-4-aminocyclohexyl)-3-propionamidobenzamide], the IC50 came to 84.3 µM. On the same count and under the same terms, to `CC(NC(=O)c1ccc2ccc(O)nc2c1)C1CCN(C(=O)[C@H](C)N)CC1` (stereo partly drawn) [compound 120, N-(1-(1-(L-alanyl)piperidin-4-yl)ethyl)-2-hydroxyquinoline-7-carboxamide] belongs 86.9 µM; to `COc1cc(C(=O)NC(C)C2CCN(C(=O)[C@H](C)N)CC2)cc2c1OCC(=O)N2` (stereo partly drawn) [compound 98, N-(1-(1-(L-alanyl)piperidin-4-yl)ethyl)-8-methoxy-3-oxo-3,4-dihydro-2H-benzo[b][1,4]oxazine-6-carboxamide], 151 µM.

`CCc1ccc(C(=O)N[C@H]2CC[C@H](N)CC2)cc1` [compound 18, N-((1r,4r)-4-aminocyclohexyl)-4-ethylbenzamide]: the half-maximal inhibitory concentration (IC50) amounted to 125 µM.

Take `CC(=O)Nc1ccc(S(=O)(=O)N2CCC(NC(=O)c3cnccn3)CC2)cc1` [compound 5, N-(1-((4-acetamidophenyl)sulfonyl)piperidin-4-yl)pyrazine-2-carboxamide]: the IC50 was > 100 µM. For the compound `Nc1ccc2cc(C(=O)N[C@H]3CC[C@H](N)CC3)ccc2c1` [compound 75, 6-amino-N-((1r,4r)-4-aminocyclohexyl)-2-naphthamide], the IC50 was found to be 62.5 µM.
